Measured values: patent publication US10085449B2, “N-[1-((6-chloropyridin-3-yl)methyl)pyridin-2(1H)-ylidene]-2,2,2- trifluoroacetamide for control of agricultural/horticultural pests” (priority 2010, dated 2018)
Read-outs that look alike come from different tables or passages of the source.

Key:
Type in all cases: in vivo
small brown planthopper [1] = test: whole plant or invertebrate; conditions: Laodelphax striatellus, 72 h
Procedure: (§1) Rice seedlings grown in pots were subjected to soil drenching treatment with solutions of the inventive compounds at a predetermined concentration prepared to 10% acetone/water. Three days following treatment, ten second-instar small brown planthopper larvae were released onto each seedling. The treated seedlings and larvae were then held in an incubation chamber at 25° C. (16-hour period of light, 8-hour dark period). Three days after released, the numbers of live and dead insects were counted, and the mortality was calculated from the following formula. The test was carried out as two replications. Mortality (%)=[number of dead insects/(number of live insects+number of dead insects)]×100

[2] = test system: brown rice planthopper having a low susceptibility to insecticides; parameters: key to Brown rice planthopper, Kumamoto low susceptibility (rice soil drenching), effect: mortality %, dead/(live+dead) ×100; conditions: rice soil drenching, 0.05 mg/pot
Procedure: as §1, with “days after” for “days following”, “second-instar” for “second-instar small”, “brown rice” for “brown”, “larvae having a low susceptibility to insecticides” for “larvae”, “The” for “The treated”, “and insects” for “and larvae”
The pests used in this test were insects that had been raised indoors for successive generations over a long period of time (susceptible line), and insects that had been raised indoors for successive generations after being collected (I) in 2007 within Kumamoto Prefecture and (II) in 2005 within Fukuoka Prefecture (field-collected lines).

cotton aphid = test: whole plant or invertebrate; conditions: Aphis gossypii, foliar
Procedure: (§2) Leaf discs 2.0 cm in diameter were cut from cucumber plants grown in pots, and these were sprayed with solutions of the inventive compounds at a predetermined concentration prepared to 50% acetone/water (containing 0.05% Tween 20). The treated leaf discs were air dried, following which first-instar larvae were released onto the discs. The leaf discs and larvae were then held in an incubation chamber at 25° C. (16-hour period of light, 8-hour dark period). Three days after released, the numbers of live and dead insects were counted, and the mortality was calculated from the following formula. This was a two-replication test. Mortality (%)=[number of dead insects/(number of live insects+number of dead insects)]×100

small brown planthopper [3] = test: whole plant or invertebrate; conditions: Laodelphax striatellus, in Triticum aestivum, 96 h
Procedure: as §1, with “Wheat seedling roots 48 hours after sowing” for “Rice seedlings grown in pots”, “treated” for “subjected to soil drenching treatment”, “After allowing the roots to absorb the chemical for 72 hours,” for “Three days following treatment,”, “Four” for “Three”

diamondback moth = test: whole plant or invertebrate; conditions: Plutella xylostella, foliar
Procedure: as §2, with “5.0” for “2.0”, “cabbage” for “cucumber”, “second-instar” for “first-instar”

rice leaf bug = test: whole plant or invertebrate; conditions: foliar, 72 h
Procedure: The treated seedlings were air-dried, then each was placed in a glass cylinder and two second-instar rice leaf bug larvae were released within the same glass cylinder. Following release of the insects, the tube was capped and held in an incubation chamber at 25° C. (16-hour period of light, 8-hour dark period). […] Three days after released, the numbers of live and dead insects were counted, and the mortality was calculated from the following formula. Mortality (%)=[number of dead insects/(number of live insects+number of dead insects)]×100

western flower thrips = test: whole plant or invertebrate; conditions: Frankliniella occidentalis, foliar
Procedure: as §2, with “2.8” for “2.0”, “bean” for “cucumber”

common cutworm = test: whole plant or invertebrate; conditions: foliar application, 500 ppm
Procedure: as §2, with “5.0” for “2.0”, “cabbage” for “cucumber”, “third-instar” for “first-instar”

[4] = rice soil drenching, 0.05 mg/pot (Table 13), read-out: Small brown planthopper (rice soil drenching), effect
[5] = rice soil drenching, 0.01 mg/pot (Table 13), read-out: Small brown planthopper (rice soil drenching), effect
[6] = soil, read-out: Small brown planthopper (rice soil drenching), effect
[7] = read-out: Insecticidal effects (mortality), cotton aphid first-instar larvae
[8] = read-out: Insecticidal effects (mortality), western flower thrips first-instar larvae
[9] = read-out: Insecticidal effects (mortality), small brown planthopper second-instar larvae
[10] = soil, read-out: Insecticidal effects (mortality), small brown planthopper second-instar larvae
[11] = read-out: Insecticidal effects (mortality), diamondback moth second-instar larvae

In the case of `N#CN=c1ccccn1Cc1ccc(Cl)nc1` [Comparative Example 2, N-[1-((6-chloropyridin-3-yl)methyl)pyridin-2(1H)-ylidene]cyanamide, reference compound], the pest or weed control at 0.05 mg/pot (small brown planthopper [1]; [4]) is reported as 20%.
Compound `CC(=O)/N=c1\ccccn1Cc1ccc(Cl)nc1` [Comparative Example 3, N-[1-((6-chloropyridin-3-yl)methyl)pyridin-2(2H)-ylidene]acetamide, reference compound] has a pest or weed control at 0.05 mg/pot (small brown planthopper [1]; [4]) of 10%.
With `O=C(/C=C1\NCCN1Cc1ccc(Cl)nc1)C(F)(F)F` [Comparative Example 4, 3-[1-((6-chloropyridin-3-yl)methyl)imidazolidin-2-ylidene]-1,1,1-trifluoropropan-2-one, reference compound] the “Brown rice planthopper, Kumamoto low susceptibility (rice soil drenching), effect” value (from here on “Brown rice planthopper”) [2] was 45, the pest or weed control at 0.01 mg/pot (small brown planthopper [1]; [5]) was 20% and the pest or weed control at 0.05 mg/pot (small brown planthopper [1]; [4]) was 100%.
In the case of `O=C(/C=C1\SCCN1Cc1ccc(Cl)nc1)C(F)(F)F` [Comparative Example 5, 3-[3-((6-chloropyridin-3-yl)methyl)thiazolidin-2-ylidene]-1,1,1-trifluoropropan-2-one, reference compound], the “Brown rice planthopper” value [2] is reported as 25, the pest or weed control at 0.01 mg/pot (small brown planthopper [1]; [5]) is reported as 15% and the pest or weed control at 0.05 mg/pot (small brown planthopper [1]; [4]) is reported as 95%.
In the case of `O=C(C(C(=O)C(F)(F)F)=C1NCCN1Cc1ccc(Cl)nc1)C(F)(F)F` [Comparative Example 6, 3-[1-((6-chloropyridin-3-yl)methyl)imidazolidin-2-ylidene]-1,1,1,5,5,5-hexafluoropentan-2,4-dione, reference compound], the “Brown rice planthopper” value [2] is reported as 25, the pest or weed control at 0.01 mg/pot (small brown planthopper [1]; [6]) is reported as 20% and the pest or weed control at 0.05 mg/pot (small brown planthopper [1]; [6]) is reported as 100%.
`O=C(/N=C1\NCCN1Cc1ccc(Cl)nc1)C(F)(F)F` [Comparative Example 7, N-[1-((6-chloropyridin-3-yl)methyl)imidazolidin-2-ylidene]-2,2,2-trifluoroacetamide, reference compound] was tested, and the “Brown rice planthopper” value [2] was 20, the pest or weed control at 0.01 mg/pot (small brown planthopper [1]; [5]) was 5% and the pest or weed control at 0.05 mg/pot (small brown planthopper [1]; [4]) was 63%.
Work on `O=C(/N=C1\SCCN1Cc1ccc(Cl)nc1)C(F)(F)F` [Comparative Example 8, N-[3-((6-chloropyridin-3-yl)methyl)thiazolidin-2-ylidene]-2,2,2-trifluoroacetamide, reference compound] yielded a pest or weed control at 0.05 mg/pot (small brown planthopper [1]; [4]) of 20%.
`N#CNCc1ccc(Cl)nc1` [Compound 1 in Patent Document 1, N-[(6-chloropyridin-3-yl)methyl]cyanamide, reference compound] showed a mortality at 500 ppm (cotton aphid; in Cucumis sativus, 72 h) of 65%.
In the case of `O=C(N=c1ccccn1Cc1ccc(Cl)nc1)C(Cl)(Cl)Cl` [Compound 235, 2,2,2-trichloro-N-[1-((6-chloropyridin-3-yl)methyl)pyridin-2(1H)-ylidene]acetamide], the mortality at 20 ppm (cotton aphid; in Cucumis sativus, 72 h) is reported as at least 80%, the mortality at 100 ppm (cotton aphid; in Cucumis sativus, 72 h) is reported as at least 80% and the mortality at 500 ppm (cotton aphid; in Cucumis sativus, 72 h) is reported as at least 80%. The mortality at 20 µg/seedling (small brown planthopper [3]) was at least 80%, the mortality at 100 ppm (diamondback moth; in Brassica oleracea, 72 h) was at least 80% and the mortality at 500 ppm (diamondback moth; in Brassica oleracea, 72 h) was at least 80%.
For `O=C(CCl)N=c1ccccn1Cc1ccc(Cl)nc1` [Compound 236, 2-chloro-N-[1-((6-chloropyridin-3-yl)methyl)pyridin-2(1H)-ylidene]acetamide], the mortality at 20 ppm (cotton aphid; in Cucumis sativus, 72 h) was at least 80%, the mortality at 100 ppm (cotton aphid; in Cucumis sativus, 72 h) was at least 80% and the mortality at 50 ppm (rice leaf bug) was at least 80%.
In the case of `CC(c1ccc(Cl)nc1)n1ccccc1=NC(=O)C(F)(F)F` (centres unmarked) [Compound 237, N-[1-(1-(6-chloropyridin-3-yl)ethyl)pyridin-2(1H)-ylidene]-2,2,2-trifluoroacetamide], the mortality at 20 ppm (cotton aphid; [7]) is reported as 85%, the mortality at 100 ppm (cotton aphid; [7]) is reported as 100% and the mortality at 500 ppm (cotton aphid; [7]) is reported as 100%. For the same compound, the mortality at 20 ppm (cotton aphid; in Cucumis sativus, 72 h) was at least 80%, the mortality at 100 ppm (cotton aphid; in Cucumis sativus, 72 h) was at least 80% and the mortality at 500 ppm (cotton aphid; in Cucumis sativus, 72 h) was at least 80%. For the same compound, the mortality at 500 ppm (western flower thrips; 72 h) was at least 80%, the mortality at 500 ppm (western flower thrips; [8]) was 90% and the mortality at 20 µg/seedling (small brown planthopper [3]) was at least 80%. The mortality at 0.5 mg/seedling (small brown planthopper [3]; [9]) was 50%, the mortality at 2 mg/seedling (small brown planthopper [3]; [9]) was 100% and the mortality at 20 mg/seedling (small brown planthopper [3]; [9]) was 100%. It also gave a pest or weed control at 0.01 mg/pot (small brown planthopper [1]; [5]) of 75%, a pest or weed control at 0.05 mg/pot (small brown planthopper [1]; [4]) of 100% and a mortality at 0.05 mg/seedling (small brown planthopper [1]; soil) of at least 80%. The mortality at 0.01 mg/pot (small brown planthopper [1]; [10]) was 75%, the mortality at 0.05 mg/pot (small brown planthopper [1]; [10]) was 100% and the mortality at 20 ppm (diamondback moth; [11]) was 100%. It also gave a mortality at 100 ppm (diamondback moth; [11]) of 100%, a mortality at 500 ppm (diamondback moth; [11]) of 100% and a mortality at 100 ppm (diamondback moth; in Brassica oleracea, 72 h) of at least 80%. For the same compound, the mortality at 500 ppm (diamondback moth; in Brassica oleracea, 72 h) was at least 80% and the “Insecticidal effects (mortality), common cutworm third-instar larvae” value (common cutworm) was 33.
In the case of `O=C(N=c1ccccn1Cc1ccc(Cl)nc1)C(F)F` [Compound 238, N-[1-((6-chloropyridin-3-yl)methyl)pyridin-2(1H)-ylidene]-2,2-difluoroacetamide], the mortality at 1.25 ppm (cotton aphid; [7]) is reported as 100%, the mortality at 5 ppm (cotton aphid; [7]) is reported as 100% and the mortality at 20 ppm (cotton aphid; [7]) is reported as 100%. For the same compound, the mortality at 100 ppm (cotton aphid; [7]) was 100%, the mortality at 20 ppm (cotton aphid; in Cucumis sativus, 72 h) was at least 80% and the mortality at 100 ppm (cotton aphid; in Cucumis sativus, 72 h) was at least 80%. It also gave a mortality at 100 ppm (western flower thrips; 72 h) of at least 80%, a mortality at 100 ppm (western flower thrips; [8]) of 95% and a mortality at 20 µg/seedling (small brown planthopper [3]) of at least 80%. The mortality at 0.063 mg/seedling (small brown planthopper [3]; [9]) was 25%, the mortality at 0.25 mg/seedling (small brown planthopper [3]; [9]) was 100% and the mortality at 0.5 mg/seedling (small brown planthopper [3]; [9]) was 100%. For the same compound, the mortality at 2 mg/seedling (small brown planthopper [3]; [9]) was 100%, the mortality at 20 mg/seedling (small brown planthopper [3]; [9]) was 100% and the pest or weed control at 0.005 mg/pot (small brown planthopper [1]; rice soil drenching, 0.005 mg/pot (Table 13), read-out: Small brown planthopper (rice soil drenching), effect) was 33%. For the same compound, the pest or weed control at 0.01 mg/pot (small brown planthopper [1]; [5]) was 100%, the pest or weed control at 0.05 mg/pot (small brown planthopper [1]; [4]) was 100% and the mortality at 0.05 mg/seedling (small brown planthopper [1]; soil) was at least 80%. The mortality at 0.005 mg/pot (small brown planthopper [1]; [10]) was 33%, the mortality at 0.01 mg/pot (small brown planthopper [1]; [10]) was 100% and the mortality at 0.05 mg/pot (small brown planthopper [1]; [10]) was 100%. For the same compound, the mortality at 20 ppm (diamondback moth; [11]) was 60%, the mortality at 100 ppm (diamondback moth; [11]) was 100% and the mortality at 100 ppm (diamondback moth; in Brassica oleracea, 72 h) was at least 80%. The “Insecticidal effects (mortality), common cutworm third-instar larvae” value (common cutworm) was 0.
`O=C(N=c1ccccn1Cc1ccc(Cl)nc1)C(Br)Br` [Compound 241, 2,2-dibromo-N-[1-((6-chloropyridin-3-yl)methyl)pyridin-2(1H)-ylidene]-acetamide] showed a mortality at 20 ppm (cotton aphid; in Cucumis sativus, 72 h) of at least 80%, a mortality at 100 ppm (cotton aphid; in Cucumis sativus, 72 h) of at least 80% and a mortality at 20 µg/seedling (small brown planthopper [3]) of at least 80%. For the same compound, the mortality at 500 ppm (diamondback moth; in Brassica oleracea, 72 h) was at least 80%.
